# Columns and labels:
# alloxan-induced diabetes = conditions: animal model; cited from earlier work
# rat diaphragms = conditions: in vitro, cited from earlier work
# pyruvate dehydrogenase = target: T1, pyruvate dehydrogenase (Rattus norvegicus, UniProt P08461+P26284+P49432+Q6P6R2); experiment: Pyruvate dehydrogenase activity after chronic administration in tissues of the spontaneously diabetic rat; type: in vivo; conditions: for Pyruvate dehydrogenase activity, trend: spontaneously diabetic rats, 50 mg/kg daily in tail vein, heart muscle, trend after two administrations
# T1 construct: The tissue was homogenized; from tissue; host or cells: heart muscle of spontaneously diabetic BB rats
# Protocol: After the manifestation of the diabetes, spontaneously diabetic rats (BB-Wol BB, of the Moellegard Company, Denmark, n=10/group) received 0.3 mL of neutral 0.12 M (corresponding to 50 mg/kg of body weight) R-(+)-α-lipoic acid or S-(-)-α-lipoic acid daily, administered in the vein of the tail. A control group received physiological salt solution. After 7 days, the animals were sacrificed. The pyruvate dehydrogenase activity was determined in the heart muscle. The tissue was homogenized.
# Pyruvate+NAD^+ +CoA→Acetyl-CoA+CO2 +NADH+H^+
# The extinction of the reduced coenzyme is measured at 339 nm in cuvettes with a Shimadzu UV 210 Detector at 37° C. The isolation of the enzyme complex (R. Koeplin, Ph.D. Thesis, University of Tuebingen, FRG, 1988, C. J. Stanley, R. N. Perham, Biochem. J. 191, 147-154, 1980) and the enzyme assay (O. H. Lowry et al. J. Biol. Chem. 256, 815-822, 1951) were carried out as described. The protein was measured by the method of Loary (N. Bashan et al., Am. J. Physiol. m262 (Cell Physiol. 31): C682-690, 1992).
# L6 myotubes = experiment: Glucose assimilation in muscle cells (3H-2-desoxyglucose uptake); type: cell-based; conditions: for effect on glucose assimilation together with insulin, in words: 2.5 mM with insulin 200 nM; for effect on glucose assimilation, in words: compared with other enantiomer or insulin (200 nM); for Glucose Assimilation R / Glucose Assimilation S: table 1; for Glucose Assimilation Insulin: insulin 200 nM
# Protocol: The tissue muscle cells (L6 myotubes) were prepared in 24-bole plates and differentiated. After incubation with the test substances, an assay was carried out to determine hexose assimilation (^3 H-2-desoxyglucose, 10 μM, 10 minutes). […] After the cells were washed and then lysed with NaOH, the radioactivity absorbed was measured in a counter. Parallel experimental batches were carried out with cytochalasin-B, in order to determine the glucose transporter-dependent glucose translocations.
# The results can be expressed as pmol/min×mg of protein.
# [1] = system: GLUT1 Glucose Transporters; experiment: Translocation of GLUT1 glucose transporters in L6 myotubes (Western blot of cell fractions); type: cell-based; conditions: for GLUT1 translocation, Light Microsomal Fraction / GLUT1 translocation, Plasma Membrane: one hour, control 1.00
# Protocol: (§1) L6 myotubes in 15 cm dishes (n=4 to 5) were enlisted and incubated for one hour with 2.5 mM lipoate in MEM with 5 mM of glucose and 2% of fetal bovine serum. The cells were removed, homogenized and worked up in fractions (4° C.). The working up was carried out in an HEPES buffer with a defined addition of protease inhibitor. The cell fractions were obtained in 6 defined centrifuging steps. The fractions were added to a 10% polyacrylamide gel for a Western Blot analysis. The glucose transporters were determined with anti-GLUT1 and anti-GLUT4 antibodies using iodine-labeled protein A and autoradiographic detection.
# GLUT 4 = experiment: Translocation of GLUT4 glucose transporters in L6 myotubes; type: cell-based
# Protocol: as §1
# GLUT1 = experiment: Cellular content of GLUT1 glucose transporters in L6 myotubes; type: cell-based; conditions: for Content of GLUT1: L6 myotubes, 2.5 mM, 4 hours of incubation, control 1.00; for cellular content of GLUT1, in words: after four hours of incubation
# Protocol: (§2) L6 myotubes were incubated for 4 hours with 2.5 mM lipoic acid enantiomers in an MEM medium with 2% fetal bovine serum and 5 mM glucose. The glucose transporters were detected as described above. The membrane fraction is obtained after a single centrifugation at 210,000 g.
# GLUT4 = experiment: Cellular content of GLUT4 glucose transporters in L6 myotubes; type: cell-based; conditions: for Content of GLUT4: 2.5 mM, 4 hours of incubation, control 1.00; for cellular content of GLUT4, in words: after four hours of incubation
# Protocol: as §2
# [2] = system: streptozotocin-induced diabetes; experiment: Diabetes induced tissue damage, streptozotocin-induced diabetes; type: in vivo, Wistar rats; conditions: for mortality in comparison to the control / pathologically changed parameter glycosilated hemoglobin, in words / pathologically changed parameter protein oxidation, in words: streptozotocin-induced diabetes; for % Glycosilated Hemoglobin: 1.65 g/kg of food for 14 weeks, streptozotocin diabetic rats, control 9.7 ± 1.5
# Protocol: Thioct acid enantiomers were administered for 14 weeks by mouth, together with the food (1.65 g/kg of food), to female Wistar rats (n=3 to 6/group) in separate groups.
# In the eighth week, streptozotocin diabetes was induced in the animals. Six weeks after the induction of the diabetes, the surviving animals were sacrificed. Tissue was taken and analyzed.
# T1 sequence (P26284 30-390): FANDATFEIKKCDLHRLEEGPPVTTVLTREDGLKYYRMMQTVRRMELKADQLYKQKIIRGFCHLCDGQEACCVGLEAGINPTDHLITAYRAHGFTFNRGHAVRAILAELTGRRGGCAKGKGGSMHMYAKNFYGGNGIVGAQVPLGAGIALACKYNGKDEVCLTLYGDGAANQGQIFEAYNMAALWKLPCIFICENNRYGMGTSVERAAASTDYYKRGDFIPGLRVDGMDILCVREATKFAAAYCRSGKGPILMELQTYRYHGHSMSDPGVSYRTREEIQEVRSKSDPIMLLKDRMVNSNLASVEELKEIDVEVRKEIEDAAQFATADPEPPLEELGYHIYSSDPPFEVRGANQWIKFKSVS
# T1 sequence (P49432 31-359): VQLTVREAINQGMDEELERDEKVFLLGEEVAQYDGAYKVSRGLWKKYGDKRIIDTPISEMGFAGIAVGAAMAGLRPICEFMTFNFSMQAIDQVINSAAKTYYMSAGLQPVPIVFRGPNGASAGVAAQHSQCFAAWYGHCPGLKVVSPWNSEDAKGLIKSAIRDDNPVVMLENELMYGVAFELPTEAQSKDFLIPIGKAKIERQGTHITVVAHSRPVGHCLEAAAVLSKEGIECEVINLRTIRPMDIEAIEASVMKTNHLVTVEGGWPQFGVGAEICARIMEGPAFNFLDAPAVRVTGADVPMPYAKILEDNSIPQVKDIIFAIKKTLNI
# T1 sequence (P08461 86-632 limits assumed): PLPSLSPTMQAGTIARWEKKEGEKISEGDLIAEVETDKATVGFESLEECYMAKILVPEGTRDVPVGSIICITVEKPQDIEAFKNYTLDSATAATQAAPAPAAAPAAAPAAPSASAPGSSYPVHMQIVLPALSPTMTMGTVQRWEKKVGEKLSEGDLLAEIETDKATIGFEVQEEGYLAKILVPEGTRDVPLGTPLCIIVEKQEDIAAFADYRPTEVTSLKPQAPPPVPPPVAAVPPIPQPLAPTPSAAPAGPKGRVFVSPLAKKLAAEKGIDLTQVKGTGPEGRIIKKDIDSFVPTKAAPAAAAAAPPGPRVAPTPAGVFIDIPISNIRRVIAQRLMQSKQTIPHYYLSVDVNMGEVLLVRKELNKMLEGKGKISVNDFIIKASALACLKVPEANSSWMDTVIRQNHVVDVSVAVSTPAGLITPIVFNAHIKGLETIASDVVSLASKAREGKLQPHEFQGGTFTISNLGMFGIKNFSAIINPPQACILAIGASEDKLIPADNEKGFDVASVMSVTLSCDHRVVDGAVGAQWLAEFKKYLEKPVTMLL
# T1 sequence (Q6P6R2 36-509): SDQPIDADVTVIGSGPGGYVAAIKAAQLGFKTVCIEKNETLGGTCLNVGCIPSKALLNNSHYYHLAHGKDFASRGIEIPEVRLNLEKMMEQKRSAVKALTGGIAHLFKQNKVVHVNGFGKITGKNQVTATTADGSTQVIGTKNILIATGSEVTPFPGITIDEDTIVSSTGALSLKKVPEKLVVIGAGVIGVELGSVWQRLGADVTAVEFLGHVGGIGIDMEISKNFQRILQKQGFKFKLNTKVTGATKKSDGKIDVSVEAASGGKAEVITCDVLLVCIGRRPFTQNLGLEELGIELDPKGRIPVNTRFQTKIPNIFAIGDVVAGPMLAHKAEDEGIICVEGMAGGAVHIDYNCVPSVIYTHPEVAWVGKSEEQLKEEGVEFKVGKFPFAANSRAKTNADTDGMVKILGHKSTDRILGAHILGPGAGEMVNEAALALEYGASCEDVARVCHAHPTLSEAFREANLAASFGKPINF
Compound,"Pyruvate dehydrogenase activity, trend (pyruvate dehydrogenase)","effect on glucose assimilation together with insulin, in words (L6 myotubes)","effect on glucose assimilation, in words (L6 myotubes; 2.5 mM)","translocation of glucose transporters Glut 1 from the cytosol to the plasma membrane, in words [1]","GLUT1 translocation, Light Microsomal Fraction ([1]; table 4, enantiomers 2.5 mM)","GLUT1 translocation, Plasma Membrane ([1]; table 4, enantiomers 2.5 mM)","GLUT1 translocation, Light Microsomal Fraction ([1]; table 5, enantiomers 2.5 mM)","translocation of glucose transporters GLUT 4 from the cytosol to the plasma membrane, in words (GLUT 4)",Content of GLUT1 (GLUT1),"cellular content of GLUT1, in words (GLUT1)",Content of GLUT4 (GLUT4; L6 myotubes),"cellular content of GLUT4, in words (GLUT4)",mortality in comparison to the control [2],"pathologically changed parameter glycosilated hemoglobin, in words [2]","pathologically changed parameter protein oxidation, in words [2]",% Glycosilated Hemoglobin ([2]; table 7),% Glycosilated Hemoglobin ([2]; table 8),% Glycosilated Hemoglobin ([2]; table 9),other results
"O=C(O)CCCCC1CCSS1 (racemic) [R,S-(+,-)-α-lipoic acid]",–,–,–,–,–,–,–,–,–,–,–,–,–,–,–,–,–,–,effect on blood sugar (alloxan-induced diabetes): blood sugar-lowering effect; effect relative to that of insulin (rat diaphragms; Haugaard): additive; glucose assimilation by muscles (rat diaphragms; racemate from Calbiochem): increases
O=C(O)CCCC[C@@H]1CCSS1 [R-(+)-α-lipoic acid],increased,not additive,comparable to that of insulin,stimulates,0.46 ± 0.06 relative units,1.56 ± 0.25 relative units,0.46 ± 0.06 relative units,stimulates,1.81 ± 0.01 arbitrary units,increases,1.55 ± 0.24 arbitrary units,increases,reduced,corrects,corrects,8.4 ± 1.3%,8.4 ± 1.3%,8.4 ± 1.3%,"stimulation of glucose assimilation compared to the S enantiomer, factor (L6 myotubes; 2.5 mM): greater than 2; Glucose Assimilation R (L6 myotubes; 2.5 mM, incubation time 15): 16.7 ± 0.6 pmol/mg/min; Glucose Assimilation R (L6 myotubes; 2.5 mM, incubation time 30): 15.9 ± 0.9 pmol/mg/min; Glucose Assimilation R (L6 myotubes; 2.5 mM, incubation time 60): 26.1 ± 0.9 pmol/mg/min; Glucose Assimilation R (L6 myotubes; 2.5 mM, incubation time 120): 27.0 ± 0.4 pmol/mg/min; Glucose Assimilation R-(+)-α-Liponic Acid (L6 myotubes; table 2, 2.5 mM, incubation 15 min): 23.2 ± 0.5 pmol/mg/min; Glucose Assimilation R-(+)-α-Liponic Acid (L6 myotubes; table 2, 2.5 mM, incubation 30 min): 21.1 ± 0.4 pmol/mg/min; Glucose Assimilation R-(+)-α-Liponic Acid (L6 myotubes; table 2, 2.5 mM, incubation 60 min): 25.7 ± 0.5 pmol/mg/min"
"O=C(O)CCCC[C@H]1CCSS1 [S-(-)-α-lipoic acid, reference compound]",Lowered,decreases the effect of insulin,less effective,has no effect or has an inhibiting effect,0.38 ± 0.09 relative units,0.93 ± 0.37 relative units,0.38 ± 0.09 relative units,has no effect or has an inhibiting effect,1.08 ± 0.01 arbitrary units,has no effect or lowers the cellular content,0.79 ± 0.47 arbitrary units,has no effect or lowers the cellular content,increased,lesser effect to no effect,lesser effect to no effect,10.7 ± 2.1%,10.7 ± 2.1%,10.7 ± 2.1%,"pyruvate dehydrogenase, effect in animal experiments (pyruvate dehydrogenase; animal experiments): inhibited; Glucose Assimilation S (L6 myotubes; 2.5 mM, incubation time 15): 16.3 ± 0.3 pmol/mg/min; Glucose Assimilation S (L6 myotubes; 2.5 mM, incubation time 30): 14.8 ± 0.7 pmol/mg/min; Glucose Assimilation S (L6 myotubes; 2.5 mM, incubation time 60): 21.6 ± 0.4 pmol/mg/min; Glucose Assimilation S (L6 myotubes; 2.5 mM, incubation time 120): 20.5 ± 0.8 pmol/mg/min; Glucose Assimilation S-(-)α-Liponic Acid (L6 myotubes; table 3, 2.5 mM, incubation 15 min): 14.8 ± 0.4 pmol/mg/min; Glucose Assimilation S-(-)α-Liponic Acid (L6 myotubes; table 3, 2.5 mM, incubation 30 min): 13.3 ± 0.4 pmol/mg/min; Glucose Assimilation S-(-)α-Liponic Acid (L6 myotubes; table 3, 2.5 mM, incubation 60 min): 16.0 ± 0.2 pmol/mg/min; total content of glucose transporters in the cell (GLUT4), in words (GLUT4; translocation experiment, L6 myotubes): appears to lower"
"Insulin: Insulin, added at a concentration of 200 nM",–,–,–,stimulates,–,1.07 ± 0.14 relative units,–,stimulates,–,–,–,–,–,–,–,–,–,–,"Glucose Assimilation Insulin (L6 myotubes; table 2, incubation 15 min): 24.7 ± 0.9 pmol/mg/min; Glucose Assimilation Insulin (L6 myotubes; table 2, incubation 30 min): 21.6 ± 0.4 pmol/mg/min; Glucose Assimilation Insulin (L6 myotubes; table 2, incubation 60 min): 23.7 ± 0.5 pmol/mg/min; Glucose Assimilation Insulin (L6 myotubes; table 3, incubation 15 min): 17.7 ± 0.3 pmol/mg/min; Glucose Assimilation Insulin (L6 myotubes; table 3, incubation 30 min): 16.3 ± 0.5 pmol/mg/min; Glucose Assimilation Insulin (L6 myotubes; table 3, incubation 60 min): 22.3 ± 0.5 pmol/mg/min; GLUT1 translocation, Plasma Membrane ([1]; table 5, enantiomers 2.5 mM): 1.07 ± 0.14 relative units"
